The values that follow are results of earlier work, collected in the CATMoS acute toxicity set (Mansouri et al. 2021).

The structures appear in SMILES notation. “And” between values parts separate entries of the source, which are not always exact repeats. Identical values can stand only once.

In general, LD50 refers to the dose expected to kill half of the subjects tested.

This data set in a line: rat acute oral toxicity. The settings on record: in vivo.
With `OCC1(CO)CC=CCC1`, the LD50 is 1750 mg/kg.
Take `Nn1cnnc1`: the LD50 was 4800 mg/kg and 13600 mg/kg.
Regarding `O=c1ccc2cc3ccoc3c(O)c2o1`, the LD50 is 480 mg/kg.
For the molecule `CCOP(=O)(OCC)SCN1C(=O)c2ccccc2C1=O`, the LD50 is 11 mg/kg.
Consider `O=C1C2C3CCC(C3)C2C(=O)N1CCCCN1CCN(c2ncccn2)CC1` (centres undefined), for which the LD50 was 590 mg/kg.
For the molecule `NC(=O)C(=O)O`, the LD50 was 21100 mg/kg.
With `CS(=O)(=O)O`, the LD50 is 6170 mg/kg.
`O=C(O)c1cccnc1C(=O)O`: the LD50 was 1550 mg/kg.
For the molecule `NCCCN1CCOCC1`, the LD50 was 3560 mg/kg.
As to `CNC(=O)Oc1ccccc1C(C)C`, the LD50 is 450 mg/kg.
In the case of `O=C1C(=NNc2ccccc2S(=O)(=O)O)C(S(=O)(=O)O)=Cc2cc(S(=O)(=O)O)cc(Nc3nc(Cl)nc(Nc4ccccc4)n3)c21`, the LD50 is 6730 mg/kg.
For `CN1CCC(n2[nH]c(-c3ccccc3)c(Cc3ccccc3)c2=O)CC1`, the median lethal dose (LD50) was 2700 mg/kg.
On to `N[C@@H](Cc1ccc(O)c(O)c1)C(=O)O`, for which the LD50 was 1780 mg/kg.
As for `N#CC1CC=CCC1` (centres undefined), the LD50 was 460 mg/kg.
In the case of `CC(C(=O)O)c1ccc(-c2ccccc2F)cc1` (centres undefined), the LD50 was 337 mg/kg.
For `CCCCCCCCCCCCCCCCCC[N+](C)(C)Cc1ccccc1`, the LD50 is 1250 mg/kg.
Turning to `Cc1ccc(OC(=O)c2ccccc2O)cc1`, the LD50 was 1300 mg/kg.
For the molecule `CC1=NN(c2ccccc2)C(=O)C1C=O` (centres undefined), the LD50 was 716 mg/kg.
As to `ClCCBr`, the LD50 is 64 mg/kg.
Turning to `CCCCOCCOCCCC`, the LD50 is 3250 mg/kg.
With `Clc1cccc(Cl)c1N=C1NCCN1`, the LD50 is 126 mg/kg.
As to `COC1=CC=C2[C@H]3Cc4ccc(OC)c5c4[C@@]2(CCN3C)[C@H]1O5`, the LD50 is 114 mg/kg.
As for `Oc1ccc(NCc2ccccc2)cc1`, the LD50 is 400 mg/kg.
In the case of `NCCc1c[nH]c2ccccc12`, the LD50 is 300 mg/kg.
Turning to `CC1=[N+](C)c2ccccc2C1(C)C`, the LD50 is 707 mg/kg.
On to `c1ccc2c(c1)Sc1ccccc1N2CC1CN2CCC1CC2` (centres undefined), for which the LD50 was 245 mg/kg.
In the case of `CC(=O)N(CCN(C)C)n1cc(-c2ccccc2)c2ccccc21`, the 50% lethal dose (LD50) was 1100 mg/kg.
Consider `Cc1cccc(C)n1`, for which the LD50 was 400 mg/kg.
Turning to `CCCCCCCCCCCCCCCCCC(=O)OC[C@@H](O)[C@H]1OC[C@H](O)[C@H]1O`, the LD50 is 31000 mg/kg.
As to `Cc1cc(C=Cc2ccc3cc(N(C)C)ccc3[n+]2C)c(C)n1-c1ccccc1`, the LD50 was 161 mg/kg.
Take `CCOP(=O)(OCC)SCSP(=S)(OCC)OCC`: the LD50 is 35.1 mg/kg.
As for `NC1=NCC(CN2CCN(c3ccccc3)CC2)O1` (centres undefined), the LD50 is 575 mg/kg.
`CC1(C)CC1CC1C(=O)N(c2ccccc2)N(c2ccccc2)C1=O` (centres undefined): the LD50 was 800 mg/kg.
With `COP(N)(=S)Oc1ccccc1C(=O)OC(C)C` (centres undefined), the LD50 was 50 mg/kg.
As to `CCCCCCOCCO`, the LD50 is 830 mg/kg.
As to `C[N+]1(C)[C@@H]2CC[C@H]1C[C@@H](OC(=O)C(CO)c1ccccc1)C2` (some centres undefined), the LD50 was 1050 mg/kg and 1900 mg/kg.
As for `C=C(C)C1CC=C(C=NO)CC1` (centres undefined), the LD50 was 2500 mg/kg.
Turning to `O=C(c1ccccc1)c1ccc2n1CC[C@H]2C(=O)O`, the LD50 is 189 mg/kg.
On to `O=C(NC(=O)c1c(F)cccc1F)Nc1cc(Cl)c(Oc2ncc(C(F)(F)F)cc2Cl)c(Cl)c1`, for which the LD50 is 445 mg/kg.
On to `O=C(/C=C/C=C/c1ccc2c(c1)OCO2)N1CCCCC1`, for which the LD50 is 514 mg/kg.
For `CCCCCCCCCCCCCCCC(=O)OCC(=O)[C@@]1(O)[C@H](C)C[C@H]2[C@@H]3CCC4=CC(=O)C=C[C@]4(C)[C@@]3(F)[C@@H](O)C[C@@]21C`, the LD50 is 315 mg/kg.
`OCCN1CCN(CCC=C2c3ccccc3Sc3ccc(Cl)cc32)CC1`: the LD50 was 660 mg/kg.
With `CC(C/N=C/c1ccccc1O)/N=C/c1ccccc1O` (centres undefined), the LD50 is 4560 mg/kg.
On to `CN(C)C(CSC(N)=O)CSC(N)=O`, for which the LD50 was 250 mg/kg and 225 mg/kg.
For the molecule `CCCSP(=O)(OCC)Oc1cnn(-c2ccc(Cl)cc2)c1` (centres undefined), the LD50 was 237 mg/kg.
For the molecule `CCOC(=O)c1c[nH]c2cc(OCC3CC3)c(OCC3CC3)cc2c1=O`, the LD50 is 3000 mg/kg.
For the molecule `N[C@@H](CC(=O)O)C(=O)O`, the LD50 is 7940 mg/kg.
Turning to `CC(C=CC=C(C)C(=O)OC1OC(COC2OC(CO)C(O)C(O)C2O)C(O)C(O)C1O)=CC=CC=C(C)C=CC=C(C)C(=O)OC1OC(COC2OC(CO)C(O)C(O)C2O)C(O)C(O)C1O` (centres undefined), the LD50 is 3160 mg/kg.
On to `C=CC(C)(CCC=C(C)C)OC(=O)C=Cc1ccccc1` (centres undefined), for which the LD50 is 9960 mg/kg.
In the case of `O=C1C=CC(=O)N1c1cccc(N2C(=O)C=CC2=O)c1`, the LD50 was 1370 mg/kg.
For `Cc1[nH]c(=O)c(C#N)cc1-c1ccncc1`, the LD50 is 91 mg/kg.
Consider `O=Cc1ccc2c(c1)OCO2`, for which the LD50 is 2700 mg/kg.
With `CCOP(=S)(OCC)SC(CC(=O)OCSC)C(=O)OCSC` (centres undefined), the LD50 is 3.7 mg/kg.
Regarding `CCOP(=O)(OC=C(SCC)SCC)OCC`, the LD50 was 15 mg/kg.
For `Nc1ccc(S(=O)(=O)O)c2cccc(S(=O)(=O)O)c12`, the LD50 was 56000 mg/kg.
`CCOC(=O)C1(c2ccccc2)CCN(CCc2ccc(N)cc2)CC1`: the LD50 was 175 mg/kg.
For `CCCOP(=O)(OCCC)Oc1ccc2c(C)c(Cl)c(=O)oc2c1`, the LD50 was 80 mg/kg.
Regarding `CC(C)(C)NCC(O)COc1ccccc1OCC1CCCO1` (centres undefined), the LD50 was 1090 mg/kg.
On to `CN1CCCCC1CCN1c2ccccc2Sc2ccc(Br)cc21` (centres undefined), for which the LD50 is 900 mg/kg.
